Measured values taken from the ASAP Discovery antiviral challenge data (2025).
In brackets after ≈: the same amount, converted by molar mass. Several values for one entry are separate records, joined by “and”; a condition that tells them apart may be missing. Identical values can stand only once.

Tests used:
[1] = human; liver_microsomes
[2] = mouse; liver_microsomes
[3] = mdck_mdr1
[4] = not given; remark: listed apart in the source

| Compound | microsomal CLint [1] | logD | microsomal CLint [2] | Papp [3] | solubility kinetic [4] |
| --- | --- | --- | --- | --- | --- |
| CC(C)(C)[C@H](Nc1ncnc2[nH]c(-c3cnn(CC(N)=O)c3)cc12)c1ccc2c(c1)OCCO2 (racemic) | 133 µL/min/mg | 3.2 | 47 µL/min/mg | 1.66 ×10⁻⁶ cm/s | 195 µM (≈ 90 µg/mL) |
| CC(C)(C)[C@H](Nc1ncnc2[nH]c(-c3cnn(CC(N)=O)c3)cc12)c1ccc2c(n1)OCCO2 (racemic) | 36 µL/min/mg | 2.7 | 31 µL/min/mg | 0.822 ×10⁻⁶ cm/s | 48 µM (≈ 22.2 µg/mL) |
| CC(C)[C@H](Nc1ncnc2[nH]c(-c3ccc4cncn4c3)cc12)c1ccc2c(c1)S(=O)(=O)CCC2 (racemic) | 210 µL/min/mg | 4 | 170 µL/min/mg | 0.56 ×10⁻⁶ cm/s | 14 µM (≈ 6.81 µg/mL) |
| CC(C)[C@H](Nc1ncnc2[nH]c(-c3ccc4nnn(C)c4c3)cc12)c1ccc2c(c1)S(=O)(=O)CCC2 (racemic) | 752 µL/min/mg | 3.4 | 219 µL/min/mg | 0.827 ×10⁻⁶ cm/s | 6 µM (≈ 3.01 µg/mL) |
| CC(C)[C@H](Nc1ncnc2[nH]c(-c3cncc(S(C)(=O)=O)c3)cc12)c1ccc2c(c1)S(=O)(=O)CCC2 (racemic) | 635 µL/min/mg | 3.1 | 272 µL/min/mg | 0.491 ×10⁻⁶ cm/s | 31 µM (≈ 16.3 µg/mL) |
| CC(C)[C@H](Nc1ncnc2[nH]c(-c3cnn(C)c3)cc12)c1ccc2c(c1)S(=O)(=O)CCC2 (racemic) | 141 µL/min/mg | 3.3 | 155 µL/min/mg | 1.73 ×10⁻⁶ cm/s | 94 µM (≈ 42.4 µg/mL) |
| CC(C)[C@H](Nc1ncnc2[nH]c(-c3cnn(C)c3)cc12)c1ccc2c(c1)S(=O)(=O)NCC2 (racemic) | 120 µL/min/mg | 3.2 | 87 µL/min/mg | 1.58 ×10⁻⁶ cm/s | 105 µM (≈ 47.4 µg/mL) |
| CC(C)[C@H](Nc1ncnc2[nH]c(-c3cnn(C)c3C#N)cc12)c1ccc2c(c1)NC(=O)CO2 (racemic) | 100 µL/min/mg | 4.1 | 177 µL/min/mg | 3.07 ×10⁻⁶ cm/s | 69 µM (≈ 30.5 µg/mL) |
| CC(C)[C@H](Nc1ncnc2[nH]c(-c3cnn(C)c3C#N)cc12)c1ccc2c(c1)S(=O)(=O)CCC2 (racemic) | 490 µL/min/mg | 3.6 | 440 µL/min/mg | 1.97 ×10⁻⁶ cm/s | 34 µM (≈ 16.2 µg/mL) |
| CC(C)[C@H](Nc1ncnc2[nH]c(-c3cnn(C)c3C#N)cc12)c1ccc2c(n1)NC(=O)CO2 (racemic) | 70 µL/min/mg | 3.7 | 145 µL/min/mg | 9.83 ×10⁻⁶ cm/s | 29 µM (≈ 12.9 µg/mL) |
| CC(C)[C@H](Nc1ncnc2[nH]c(-c3cnn(C)c3C#N)cc12)c1ccc2c(n1)OCCO2 (racemic) | 56 µL/min/mg | 3.4 | 139 µL/min/mg | 12.8 ×10⁻⁶ cm/s | 89 µM (≈ 38.3 µg/mL) |
| CC(C)[C@H](Nc1ncnc2[nH]c(-c3cnn(CC(=O)N(C)C)c3)cc12)c1ccc2c(c1)OCCO2 (racemic) | 142 µL/min/mg | 2.3 | 59 µL/min/mg | 1.14 ×10⁻⁶ cm/s | 210 µM (≈ 99.9 µg/mL) |
| CC(C)[C@H](Nc1ncnc2[nH]c(-c3cnn(CC(=O)N(C)C)c3)cc12)c1ccc2c(c1)S(=O)(=O)CCC2 (racemic) | 106 µL/min/mg | 2.1 | 68 µL/min/mg | 0.67 ×10⁻⁶ cm/s | 38 µM (≈ 19.8 µg/mL) |
| CC(C)[C@H](Nc1ncnc2[nH]c(-c3cnn(CC(N)=O)c3)cc12)c1ccc2c(c1)NC(=O)CO2 (racemic) | 17 µL/min/mg | 2.5 | 11 µL/min/mg | 1.36 ×10⁻⁶ cm/s | 25 µM (≈ 11.5 µg/mL) |
| CC(C)[C@H](Nc1ncnc2[nH]c(-c3cnn(CC(N)=O)c3)cc12)c1ccc2c(c1)S(=O)(=O)CCC2 (racemic) | 116 µL/min/mg | 1.9 | 61 µL/min/mg | 0.32 ×10⁻⁶ cm/s | 341 µM (≈ 168 µg/mL) |
| CC(C)[C@H](Nc1ncnc2[nH]c(-c3cnn(CC(N)=O)c3)cc12)c1ccc2c(n1)OCCO2 (racemic) | 14 µL/min/mg | 2.4 | 12 µL/min/mg | 2.46 ×10⁻⁶ cm/s | 385 µM (≈ 173 µg/mL) |
| CC(C)[C@H](Nc1ncnc2[nH]c(-c3cnn(CCC(N)=O)c3)cc12)c1ccc2c(c1)OCCO2 (racemic) | 99 µL/min/mg | 3 | 62 µL/min/mg | 1.46 ×10⁻⁶ cm/s | 236 µM (≈ 109 µg/mL) |
| CC(C)[C@H](Nc1ncnc2[nH]cc(C(=O)NC3CC3)c12)c1ccc2c(c1)S(=O)(=O)CCC2 (racemic) | 29 µL/min/mg | 3.1 | 234 µL/min/mg | 2.46 ×10⁻⁶ cm/s | 257 µM (≈ 117 µg/mL) |
| CC(C)[C@H](Nc1ncnc2[nH]ccc12)c1ccc2c(c1)S(=O)(=O)CCO2 (racemic) | 18 µL/min/mg | 2.6 | 69 µL/min/mg | 4.4 ×10⁻⁶ cm/s | 372 µM (≈ 139 µg/mL) |
| CCNC(=O)c1cc2c(N[C@H](c3ccc4c(c3)OCCO4)C(C)C)ncnc2[nH]1 (racemic) | 85 µL/min/mg | 3 | 88 µL/min/mg | 2.41 ×10⁻⁶ cm/s | 72 µM (≈ 28.5 µg/mL) |

| Compound | microsomal CLint [1] | logD | microsomal CLint [2] | Papp [3] | solubility kinetic [4] |
| --- | --- | --- | --- | --- | --- |
| CCNC(=O)c1cc2c(N[C@H](c3ccc4c(c3)S(=O)(=O)CCC4)C(C)C)ncnc2[nH]1 (racemic) | 108 µL/min/mg | 2.8 | 85 µL/min/mg | 0.7 ×10⁻⁶ cm/s | 336 µM (≈ 148 µg/mL) |
| CCNC(=O)c1cc2c(N[C@H](c3ccc4c(c3)S(=O)(=O)CCO4)C(C)C)ncnc2[nH]1 (racemic) | 64 µL/min/mg | 2.9 | 26 µL/min/mg | 0.471 ×10⁻⁶ cm/s | 328 µM (≈ 145 µg/mL) |
| CCNC(=O)c1cc2c(N[C@H](c3ccc4c(c3)S(=O)(=O)NCC4)C(C)C)ncnc2[nH]1 (racemic) | 85 µL/min/mg | 2.6 | 45 µL/min/mg | 1.96 ×10⁻⁶ cm/s | 344 µM (≈ 152 µg/mL) |
| CN(c1ccc2c(c1)CNC2)[C@H](C(=O)NCC(F)F)c1cc(Cl)cc(C2CC2)c1 (racemic) | 17.1 µL/min/mg | 1.6 | 10.6 µL/min/mg | 2.1 ×10⁻⁶ cm/s | 172 µM (≈ 72.2 µg/mL) |
| CNC(=O)Cn1cc(-c2cc3c(N[C@H](c4ccc5c(c4)OCCO5)C(C)C)ncnc3[nH]2)cn1 (racemic) | 119 µL/min/mg | 2.9 | 47 µL/min/mg | 1.94 ×10⁻⁶ cm/s | 289 µM (≈ 133 µg/mL) |
| CNC(=O)Cn1cc(-c2cc3c(N[C@H](c4ccc5c(c4)S(=O)(=O)CCC5)C(C)C)ncnc3[nH]2)cn1 (racemic) | 94 µL/min/mg | 2.4 | 77 µL/min/mg | 0.47 ×10⁻⁶ cm/s | 306 µM (≈ 155 µg/mL) |
| CNC(=O)c1c[nH]c2ncnc(N[C@H](c3ccc4c(c3)NC(=O)CO4)C(C)C)c12 (racemic) | 86 µL/min/mg | 3.2 | 113 µL/min/mg | 4.26 ×10⁻⁶ cm/s | 28 µM (≈ 11 µg/mL) |
| CNC(=O)c1c[nH]c2ncnc(N[C@H](c3ccc4c(c3)OCCO4)C(C)C)c12 (racemic) | 79 µL/min/mg | 3.6 | 88 µL/min/mg | 16.2 ×10⁻⁶ cm/s | 319 µM (≈ 122 µg/mL) |
| CNC(=O)c1c[nH]c2ncnc(N[C@H](c3ccc4c(c3)S(=O)(=O)CCC4)C(C)C)c12 (racemic) | 131 µL/min/mg | 2.5 | 192 µL/min/mg | 2.23 ×10⁻⁶ cm/s | 390 µM (≈ 167 µg/mL) |
| CNC(=O)c1cc2c(N[C@H](c3ccc4c(c3)NC(=O)CO4)C(C)C)ncnc2[nH]1 (racemic) | 52 µL/min/mg | 2.8 | 20 µL/min/mg | 0.873 ×10⁻⁶ cm/s | 372 µM (≈ 147 µg/mL) |
| CNC(=O)c1cc2c(N[C@H](c3ccc4c(c3)S(=O)(=O)CCC4)C(C)C)ncnc2[nH]1 (racemic) | 77 µL/min/mg | 2.4 | 46 µL/min/mg | 0.46 ×10⁻⁶ cm/s | 369 µM (≈ 158 µg/mL) |
| CNCc1cc(-c2cc3c(N[C@H](c4ccc5c(c4)S(=O)(=O)CCC5)C(C)C)ncnc3[nH]2)co1 (racemic) | 57 µL/min/mg | 2.1 | 52 µL/min/mg | 1.61 ×10⁻⁶ cm/s | 321 µM (≈ 154 µg/mL) |
| CNCc1cc(-c2cc3c(N[C@H](c4ccc5c(c4)S(=O)(=O)NCC5)C(C)C)ncnc3[nH]2)co1 (racemic) | 46 µL/min/mg | 1.9 | 42 µL/min/mg | 1.2 ×10⁻⁶ cm/s | 372 µM (≈ 179 µg/mL) |
| COCCNC(=O)c1c[nH]c2ncnc(N[C@H](c3ccc4c(c3)S(=O)(=O)CCC4)C(C)C)c12 (racemic) | 540 µL/min/mg | 2.8 | 888 µL/min/mg | 1.62 ×10⁻⁶ cm/s | 378 µM (≈ 178 µg/mL) |
| Cn1ncc(-c2cc3c(N[C@H](c4ccc5c(c4)OCCO5)C(C)(C)C)ncnc3[nH]2)c1C#N (racemic) | 85 µL/min/mg | 2.9 | 199 µL/min/mg | 2.79 ×10⁻⁶ cm/s | 25 µM (≈ 11.1 µg/mL) |
| Cn1ncc(-c2cc3c(N[C@H](c4ccc5c(n4)OCCO5)C(C)(C)C)ncnc3[nH]2)c1C#N (racemic) | 81 µL/min/mg | 2.7 | 209 µL/min/mg | 13.5 ×10⁻⁶ cm/s | 24 µM (≈ 10.7 µg/mL) |
| NCc1cccc(CNC(=O)[C@H](NC(=O)OCc2ccccc2)c2ccc(OCc3ccccc3)cc2)c1 (racemic) | 3.89 µL/min/mg | 2.7 | 2.73 µL/min/mg | 1.44 ×10⁻⁶ cm/s | 78 µM (≈ 39.7 µg/mL) |
| CC(C)(C)[C@H](Nc1ncnc2[nH]c(-c3cnn(CC(N)=O)c3)cc12)c1ccc2c(n1)OCCO2 (single isomer, unassigned) | 27 µL/min/mg and 42 µL/min/mg | 2.7 and 2.9 | 10 µL/min/mg and 30 µL/min/mg | 1.02 ×10⁻⁶ cm/s and 1.53 ×10⁻⁶ cm/s | 372 µM and 390 µM |
| CC(C)[C@H](Nc1ncnc2[nH]c(-c3cnn(C)c3C#N)cc12)c1ccc2c(c1)S(=O)(=O)CCC2 (single isomer, unassigned) | 935 µL/min/mg and 516 µL/min/mg | 3.3 and 3.7 | 311 µL/min/mg and 709 µL/min/mg | 4.33 ×10⁻⁶ cm/s and 1.82 ×10⁻⁶ cm/s | 22 µM and 26 µM |
| CNC(=O)Cn1cc(-c2cc3c(N[C@H](c4ccc5c(c4)S(=O)(=O)CCC5)C(C)C)ncnc3[nH]2)cn1 (single isomer, unassigned) | 92 µL/min/mg and 237 µL/min/mg | 2.4 and 2.3 | 111 µL/min/mg and 44 µL/min/mg | 0.396 ×10⁻⁶ cm/s and 0.916 ×10⁻⁶ cm/s | 323 µM and 294 µM |
